Species on record: Rattus norvegicus
Test: Open TG-GATES - Regimen: Daily Repeat
Type: toxicity, organism-based, Sprague-Dawley
Parameters: regimen Daily Repeat, gender Male, age 6 weeks
Details: in vivo, iv, 0 mg/kg, route intravenous injection, dose level Control; for APTT / Bas / Eos / Fbg / Hb / Ht / Lym / MCH / MCHC / MCV / Mono / Neu / PT / Plat / RBC / Ret / WBC: tissue Blood; for KIDNEY_L / KIDNEY_R / KIDNEY_TOTAL: tissue Kidney; for LIVER: tissue Liver; for ALP / ALT / AST / BUN / CRE / Ca / Cl / DBIL / GLC / IP / K / LDH / Na / PL / RALB / TBIL / TC / TG / TP / gamma-GTP: tissue Plasma

With CC(=O)OCC1=C(C(=O)O)N2C(=O)[C@@H](NC(=O)Cc3cccs3)[C@H]2SC1 [CEPHALOTHIN] the TERMINAL_BW (72 h, time 3 day) was 230.4 g, the APTT (72 h, time 3 day) was 21.2 s and the Bas (72 h, time 3 day) was 0%. It also gave an Eos (72 h, time 3 day) of 0.8%, a Fbg (72 h, time 3 day) of 292.4 mg/dL and a Hb (72 h, time 3 day) of 13.4 g/dL. The Ht (72 h, time 3 day) was 38.5%, the Lym (72 h, time 3 day) was 82% and the MCH (72 h, time 3 day) was 21.2 pg. It also gave an MCHC (72 h, time 3 day) of 34.9%, an MCV (72 h, time 3 day) of 60.8 fL and a Mono (72 h, time 3 day) of 3.4%. For the same compound, the Neu (72 h, time 3 day) was 13%, the PT (72 h, time 3 day) was 16.1 s and the Plat (72 h, time 3 day) was 120.3 x10_4/uL. For the same compound, the RBC (72 h, time 3 day) was 633 x10_4/ul, the Ret (72 h, time 3 day) was 6.8% and the WBC (72 h, time 3 day) was 100.4 x10_2/uL. It also gave a KIDNEY_L (72 h, time 3 day) of 1 g, a KIDNEY_R (72 h, time 3 day) of 1 g and a KIDNEY_TOTAL (72 h, time 3 day) of 2 g. It also gave an LIVER (72 h, time 3 day) of 10.5 g, an ALP (72 h, time 3 day) of 1655.6 IU/L and an ALT (72 h, time 3 day) of 38.8 IU/L. It also gave an AST (72 h, time 3 day) of 69.2 IU/L, a BUN (72 h, time 3 day) of 18 mg/dL and a CRE (72 h, time 3 day) of 0.2 mg/dL. For the same compound, the Ca (72 h, time 3 day) was 10.8 mg/dL, the Cl (72 h, time 3 day) was 105.4 meq/L and the DBIL (72 h, time 3 day) was 0 mg/dL. It also gave a GLC (72 h, time 3 day) of 185.8 mg/dL, an IP (72 h, time 3 day) of 6.9 mg/dL and a K (72 h, time 3 day) of 4.6 meq/L. It also gave an LDH (72 h, time 3 day) of 153.6 IU/L, a Na (72 h, time 3 day) of 140.8 meq/L and a PL (72 h, time 3 day) of 147.2 mg/dL. The RALB (72 h, time 3 day) was 3 g/dL, the TBIL (72 h, time 3 day) was 0.002 mg/dL and the TC (72 h, time 3 day) was 79.2 mg/dL. For the same compound, the TG (72 h, time 3 day) was 108.4 mg/dL, the TP (72 h, time 3 day) was 5.3 g/dL and the gamma-GTP (72 h, time 3 day) was 1.6 IU/L. For the same compound, the TERMINAL_BW ([…], time 7 day) was 261.3 g, the TERMINAL_BW ([…], time 14 day) was 318.6 g and the TERMINAL_BW ([…], time 28 day) was 376.6 g. For the same compound, the APTT ([…], time 7 day) was 22.6 s, the Bas ([…], time 7 day) was 0% and the Eos ([…], time 7 day) was 0.8%. The Fbg ([…], time 7 day) was 303 mg/dL, the Hb ([…], time 7 day) was 13.2 g/dL and the Ht ([…], time 7 day) was 37.9%. The Lym ([…], time 7 day) was 78.6%, the MCH ([…], time 7 day) was 20.5 pg and the MCHC ([…], time 7 day) was 34.8%. For the same compound, the MCV ([…], time 7 day) was 59 fL, the Mono ([…], time 7 day) was 2.2% and the Neu ([…], time 7 day) was 17.8%. For the same compound, the PT ([…], time 7 day) was 17 s, the Plat ([…], time 7 day) was 139.9 x10_4/uL and the RBC ([…], time 7 day) was 642.6 x10_4/ul. It also gave a Ret ([…], time 7 day) of 5.7%, a WBC ([…], time 7 day) of 107.7 x10_2/uL and an APTT ([…], time 14 day) of 23.5 s. For the same compound, the Bas ([…], time 14 day) was 0%, the Eos ([…], time 14 day) was 1% and the Fbg ([…], time 14 day) was 268.2 mg/dL. It also gave a Hb ([…], time 14 day) of 14.2 g/dL, a Ht ([…], time 14 day) of 39.3% and a Lym ([…], time 14 day) of 76.4%. The MCH ([…], time 14 day) was 20.3 pg, the MCHC ([…], time 14 day) was 36.1% and the MCV ([…], time 14 day) was 56.2 fL. The Mono ([…], time 14 day) was 3%, the Neu ([…], time 14 day) was 18.8% and the PT ([…], time 14 day) was 16.1 s. It also gave a Plat ([…], time 14 day) of 126.1 x10_4/uL, an RBC ([…], time 14 day) of 698.6 x10_4/ul and a Ret ([…], time 14 day) of 4.8%. The WBC ([…], time 14 day) was 110.4 x10_2/uL, the APTT ([…], time 28 day) was 26.5 s and the Bas ([…], time 28 day) was 0%. It also gave an Eos ([…], time 28 day) of 1%, a Fbg ([…], time 28 day) of 291.4 mg/dL and a Hb ([…], time 28 day) of 15.6 g/dL. It also gave a Ht ([…], time 28 day) of 42.3%, a Lym ([…], time 28 day) of 83.6% and an MCH ([…], time 28 day) of 19.8 pg. It also gave an MCHC ([…], time 28 day) of 36.9%, an MCV ([…], time 28 day) of 53.6 fL and a Mono ([…], time 28 day) of 2.6%. It also gave a Neu ([…], time 28 day) of 12%, a PT ([…], time 28 day) of 16.3 s and a Plat ([…], time 28 day) of 108 x10_4/uL. The RBC ([…], time 28 day) was 789.2 x10_4/ul, the Ret ([…], time 28 day) was 2.4% and the WBC ([…], time 28 day) was 108.4 x10_2/uL. It also gave a KIDNEY_L ([…], time 7 day) of 1 g, a KIDNEY_R ([…], time 7 day) of 1.1 g and a KIDNEY_TOTAL ([…], time 7 day) of 2.1 g. The KIDNEY_L ([…], time 14 day) was 1.2 g, the KIDNEY_R ([…], time 14 day) was 1.3 g and the KIDNEY_TOTAL ([…], time 14 day) was 2.5 g. The KIDNEY_L ([…], time 28 day) was 1.3 g, the KIDNEY_R ([…], time 28 day) was 1.3 g and the KIDNEY_TOTAL ([…], time 28 day) was 2.5 g. The LIVER ([…], time 7 day) was 11.4 g, the LIVER ([…], time 14 day) was 12.9 g and the LIVER ([…], time 28 day) was 14.2 g. For the same compound, the ALP ([…], time 7 day) was 1413.8 IU/L, the ALT ([…], time 7 day) was 35 IU/L and the AST ([…], time 7 day) was 71.2 IU/L. It also gave a BUN ([…], time 7 day) of 18.6 mg/dL, a CRE ([…], time 7 day) of 0.2 mg/dL and a Ca ([…], time 7 day) of 10.7 mg/dL. It also gave a Cl ([…], time 7 day) of 107 meq/L, a DBIL ([…], time 7 day) of 0 mg/dL and a GLC ([…], time 7 day) of 182 mg/dL. It also gave an IP ([…], time 7 day) of 7 mg/dL, a K ([…], time 7 day) of 4.4 meq/L and an LDH ([…], time 7 day) of 177.6 IU/L. It also gave a Na ([…], time 7 day) of 142 meq/L, a PL ([…], time 7 day) of 121.8 mg/dL and an RALB ([…], time 7 day) of 2.9 g/dL. For the same compound, the TBIL ([…], time 7 day) was 0.004 mg/dL, the TC ([…], time 7 day) was 64.8 mg/dL and the TG ([…], time 7 day) was 87.6 mg/dL. The TP ([…], time 7 day) was 5.3 g/dL, the gamma-GTP ([…], time 7 day) was 1.8 IU/L and the ALP ([…], time 14 day) was 1425 IU/L. It also gave an ALT ([…], time 14 day) of 34.4 IU/L, an AST ([…], time 14 day) of 63.4 IU/L and a BUN ([…], time 14 day) of 16.8 mg/dL. The CRE ([…], time 14 day) was 0.2 mg/dL, the Ca ([…], time 14 day) was 10.9 mg/dL and the Cl ([…], time 14 day) was 104.4 meq/L. For the same compound, the DBIL ([…], time 14 day) was 0 mg/dL, the GLC ([…], time 14 day) was 185.8 mg/dL and the IP ([…], time 14 day) was 6.9 mg/dL. It also gave a K ([…], time 14 day) of 4.4 meq/L, an LDH ([…], time 14 day) of 119.2 IU/L and a Na ([…], time 14 day) of 141.4 meq/L. For the same compound, the PL ([…], time 14 day) was 138 mg/dL, the RALB ([…], time 14 day) was 3.1 g/dL and the TBIL ([…], time 14 day) was 0.01 mg/dL. The TC ([…], time 14 day) was 67.8 mg/dL, the TG ([…], time 14 day) was 96.8 mg/dL and the TP ([…], time 14 day) was 5.8 g/dL. It also gave a gamma-GTP ([…], time 14 day) of 3.2 IU/L, an ALP ([…], time 28 day) of 967 IU/L and an ALT ([…], time 28 day) of 31.8 IU/L. It also gave an AST ([…], time 28 day) of 64.2 IU/L, a BUN ([…], time 28 day) of 18.2 mg/dL and a CRE ([…], time 28 day) of 0.2 mg/dL. For the same compound, the Ca ([…], time 28 day) was 10.4 mg/dL, the Cl ([…], time 28 day) was 105.4 meq/L and the DBIL ([…], time 28 day) was 0 mg/dL. It also gave a GLC ([…], time 28 day) of 188.6 mg/dL, an IP ([…], time 28 day) of 5.9 mg/dL and a K ([…], time 28 day) of 4.3 meq/L. The LDH ([…], time 28 day) was 181.6 IU/L, the Na ([…], time 28 day) was 142.6 meq/L and the PL ([…], time 28 day) was 134.8 mg/dL. The RALB ([…], time 28 day) was 3.1 g/dL, the TBIL ([…], time 28 day) was 0.004 mg/dL and the TC ([…], time 28 day) was 64 mg/dL. For the same compound, the TG ([…], time 28 day) was 131 mg/dL, the TP ([…], time 28 day) was 6.1 g/dL and the gamma-GTP ([…], time 28 day) was 1 IU/L.
